The values that follow come from patent publication US20070161547A1, “Modulation of survivin expression” (priority 2003, published 2007).

Where two headings read alike, the source gives them in different places. d = 2'-deoxy (DNA) Some results are limits rather than exact numbers.

The test system of one data set is human survivin mRNA. In words: IC50 of dsRNA for survivin mRNA, dose response by quantitative RT-PCR ("D"). Type of data set: cell-based. Here is the method:
Representative parameters that can be studied include, for example, translation of survivin mRNAs or survivin protein synthesis; effect on surrogate markers; or any other parameter that is indicative of potential dsRNA therapeutic effectiveness that can be conveniently measured in vitro.
(§1) For western blot analysis, cells are plated in 10 cm tissue culture dishes (Falcon, #3003) at a density of 7.5×10^5 cells/dish. For RT-PCR analysis, 96-well plates (Corning Incorporated, #3596) are plated with 1×10^4 cells/well. Lipofectin (GIBCO/Invitrogen) transfection reagent is used at a concentration of 3 ul/ml OPTIMEM reduced serum medium (Gibco/Invitrogen)/100 nM siRNA duplex. Lipofectin reagent is incubated with OPTIMEM medium for 30 minutes prior to the addition of siRNA. The desired amount of siRNA is added and mixed. Further 1:1 dilutions are performed in OPTIMEM. Cells are washed twice with 1× phosphate buffered saline and then treated with the siRNA/Lipofectin mixture in OPTIMEM. After a 4 hr incubation period, OPTIMEM medium is replaced with complete growth medium. Cells are harvested after additional 16-20 hrs for Western blot or RT-PCR analysis.
Total RNA is isolated using RNeasy® 96 kit according to recommended protocol (Qiagen). Briefly, cells are washed with 200 ul PBS after removal of growth medium. Following washing, 100 μl buffer RLT is added, plate is shaken vigorously for about 20 seconds. To each well 100 μl 70% ethanol are added and mixed by pipetting up and down three times. Samples are then applied into the wells of the RNeasy 96 plate placed in the QIAvac top base of the QIAvac 96 manifold, which is attached to a vacuum source. Vacuum is applied for 30 seconds or until transfer is complete. To each well 80 μl of DNase I incubation mix (20 mM Tris-HCl, pH 8.4, 2 mM MgCl2, 50 mM KCl and 225 Units/ml DNase I from Invitrogen) is added and incubated at room temperature for 30 minutes. Buffer RW1 (1 ml/well) is added and the vacuum is applied for 30 seconds. Buffer RPE (1 ml/well) is added to each well and vacuum is applied for 30 seconds. Washing steps with buffer RW1 and RPE1 are repeated once more. The plate is then removed from the manifold and blotted dry on paper towels. The plate is placed back in the QIAvac manifold and the vacuum is applied for 10 minutes. To elute RNA 30 μl of RNase-free water is added directly onto the membrane of each well, incubated for 1 minutes and vacuum is applied for 30 seconds. In order to maximize the recovery of total RNA the elution step is repeated with additional 30 μl/well RNase-free water.
Quantitation of survivin and GAPDH mRNA levels is determined by real-time quantitative RT-PCR using the ABI PRISM® 7900 Sequence Detection System (Applied Biosystems). RT-PCR reactions are carried out by adding 15 ul of TaqMan One Step PCR Master Mix (Applied Biosystems, #4309169) reagents (containing 100 nM each of forward primer and reverse primer, and 200 nM probe) to 96-well plates with 10 μl total RNA. For human survivin, the forward PCR primer is: 5′[…]3′ (SEQ ID NO: 186), and the reverse primer is: 5′[…]3′ (SEQ ID NO: 187). The survivin TaqMan® probe used is 5′(FAM)[…]3′ (SEQ ID NO: 188) (Biosearch Technologies, Inc.). This primer-probe set, designed to SEQ ID No 14 was used for all experiments in Examples 15 to the end. For human GAPDH, TaqMan GAPDH Control Reagent Kit is used (Applied Biosystems, #402869). The percentage inhibition for each samples are calculated by comparing the survivin/GAPDH mRNA ratio for the sample to survivin/GAPDH mRNA ratio for the untreated control. The IC50 is derived from the non-linear regression analysis of the percentage inhibition data using GraphPad Prism software (GraphPad Software).
The constructs tested comprise the antisense strand in the 5′-3′ orientation, and the sense strand in the 5′ to 3′ orientation, In Table 15, “D” is dose response (mRNA levels) and “W” is Western blot. […]

In the next data set the test system is survivin protein. In words: IC50 of dsRNA for survivin protein, quantitative Western blot ("W"). To be noted: for IC50: W (Western blot), HeLa cells. Type of data set: cell-based, human. As to the method:
Western blot analysis (immunoblot analysis) is carried out using standard methods. Cells are harvested 16-20 hours after oligonucleotide treatment, washed once with PBS, suspended in Laemmli buffer (100 μl/well), boiled for 5 minutes and loaded on a 16% SDS-PAGE gel. Gels are run for 1.5 hours at 150 V, and transferred to membrane for western blotting. Appropriate primary antibody directed to survivin is used, with a radiolabelled or fluorescently labeled secondary antibody directed against the primary antibody species. Bands are visualized using a PHOSPHORIMAGER™ (Molecular Dynamics, Sunnyvale, Calif.).
as §1
At the end of the incubation period culture medium is removed and cells are washed twice with PBS. Cells are lysed in RIPA buffer (20 mM Tris-HCl, pH 7.4, 5 mM EDTA, 50 mM NaCl, 10 mM Sodium Pyrophosphate, 50 mM Sodium Fluoride, and 1% Nonidet P40) plus Complete™ Mini protease inhibitor tablets (Roche, #1836153) and 1 mM Sodium orthovanadate (Sigma) by directly adding buffer to the plate. Lysates are collected by scrapping, transferred to microfuge tubes and cleared from the cellular debris by centrifugation at 14,000 rpm for 30 minutes at 4° C. Protein concentrations are determined using BCA protein assay yeagents (Pierce). Total cellular protein is subjected to SDS-PAGE and transferred onto Immobilon-P membranes (Millipore, #IPVHO91). Membranes are probed with primary antibodies to survivin (R&D Systems, #AF886) and to β-Actin (Sigma, #A5441). Horseradish peroxidase linked Anti-rabbit Ig, and anti-mouse Ig, antibodies (Pharmacia) are used as secondary antibodies. Antigen-antibody complexes are visualized by incubation of membrane in SuperSigmal West Pico chemiluminescence reagents (Pierce) for 5 minutes followed by capturing of the chemiluminescence using Fluor-S imager (Biorad) equipped with the cool CCD camera. The protein bands of interest for each sample are quantified using Quantity One software (Biorad). The percentage inhibition for each samples are calculated by comparing the survivin/Actin protein ratio for the sample to survivin/Actin protein ratio for the untreated control. The IC50 is derived from the non-linear regression analysis of the percentage inhibition data using GraphPad Prism software (GraphPad Software).
The constructs tested comprise the antisense strand in the 5′-3′ orientation, and the sense strand in the 5′ to 3′ orientation, In Table 15, “D” is dose response (mRNA levels) and “W” is Western blot. All internucleoside linkages are phosphodiester unless otherwise noted by a lowercase “s” indicating a phosphorothioate linkage.

Data set [1] in a line: Stability of siRNA constructs in mouse plasma, capillary gel electrophoresis. Type of data set: in vitro ADME. The following applies: for Stability (t ½ in hours): Table 17, 25% mouse plasma, 37° C., pseudo first-order half-life of intact siRNA duplex. As to the method:
Intact duplex RNA was analyzed from diluted mouse-plasma using an extraction and capillary electrophoresis method similar to those previously described (Leeds, J. M., et al., 1996, Anal. Biochem., 235, 36-43; Geary, R. S., et al., 1999, Anal. Biochem., 274, 241-248. Heparin-treated mouse plasma, from 3-6 month old female Balb/c mice (Charles River Labs) was thawed from −80° C. and diluted to 25% (v/v) with phosphate buffered saline (140 mM NaCl, 3 mM KCl, 2 mM potassium phosphate, 10 mM sodium phosphate). Approximately 10 nmol of pre-annealed siRNA, at a concentration of 100 μM, was added to the 25% plasma and incubated at 37° C. for 0, 15, 30, 45, 60, 120, 180, 240, 360, and 420 minutes. Aliquots were removed at the indicated time, treated with EDTA to a final concentration of 2 mM, and placed on ice at 0° C. until analyzed by capillary gel electrophoresis (Beckman P/ACE MDQ-UV with eCap DNA Capillary tube). The area of the siRNA duplex peak was measured and used to calculate the percent of intact siRNA remaining. Adenosine triphosphate (ATP) was added at a concentration of 2.5 mM to each injection as an internal calibration standard. A zero time point was taken by diluting siRNA in phosphate buffered saline followed by capillary electrophoresis. Percent intact siRNA was plotted against time, allowing the calculation of a pseudo first-order half-life.

[2] abbreviates: Table 16, cell line not given, read-out: IC50 (nM) mRNA, dsRNA to human survivin.

As to “339062_339092 (antisense UCCACCUGAAGUUCACCCCG; sense CGGGGUGAACUUCAGGUGGA; siRNA; unmodified RNA)”, the IC50 came out at 1.8 nM with human survivin mRNA (D (dose response, mRNA levels), HeLa cells, read-out: IC50) and 65.2 nM in the data set on survivin protein.
In the case of “339050_339080 (antisense AGAAGCACCUCUGGUGCCAC; sense GUGGCACCAGAGGUGCUUCU; siRNA; unmodified RNA)”, in the data set with survivin protein, the IC50 is at least 100 nM.
Regarding “339054_339084 (antisense CAACAUGAGGUCCAGACACA; sense UGUGUCUGGACCUCAUGUUG; siRNA; unmodified RNA)”, the IC50 with survivin protein was at least 100 nM.
The substance “339059_339089 (antisense GCUAUUCUGUGAAUUAACAA; sense UUGUUAAUUCACAGAAUAGC; siRNA; unmodified RNA)” showed a concentration for half-maximal inhibition (IC50) with survivin protein of 6.41 nM.
As for “ISIS 355713_355714: blunt-ended siRNA duplex, alternating 2'-O-methyl/2'-fluoro in opposing register: antisense 355713, sense 355714 (antisense UUUGAAAAUGUUGAUCUCC; sense GGAGAUCAACAUUUUCAAA; chemistry not fully specified)”, the concentration for half-maximal inhibition (IC50) in the data set on human survivin mRNA (setting [2]) amounted to 0.06 nM. The “Stability (t ½ in hours)” value in data set [1] was over 4 h. For the same substance, the “stability of construct in serum (mouse plasma)” value in data set [1] (in words) was “remains relatively unchanged and is stable in serum”.
Take “339049_339079 (antisense AGCACAGUUGAAACAUCUAA; sense UUAGAUGUUUCAACUGUGCU; siRNA; unmodified RNA)”: the midpoint of inhibition in the data set with survivin protein, the IC50, lay at 6.12 nM.
Same read-out and setting: the figure for “339055_339085 (antisense AGUCCACACUCAGGACUGUG; sense CACAGUCCUGAGUGUGGACU; siRNA; unmodified RNA)” is at least 100 nM.
For “Compound U17: canonical siRNA targeted to human survivin, two deoxythymidines at 3' end of each strand (Table 14) (antisense GGAGAUCAACAUUUUCAAA; sense UUUGAAAAUGUUGAUCUCC; RNA, 3' dTdT, backbone not given here)”, the “activity in quantitative RT-PCR analysis” value in the data set on human survivin mRNA (in words) was “potent activity”. Moreover, the “activity in Western blot analysis” value in the data set with survivin protein (in words) is recorded as “potent activity”.
“339051_339081 (antisense UCCCUCACUUCUCACCUGGU; sense ACCAGGUGAGAAGUGAGGGA; siRNA; unmodified RNA)”: in the data set on survivin protein, the IC50 is at least 100 nM.
On to “339044_339074 (antisense AGGGCUGCCAGGCAGGGGGC; sense GCCCCUGCCUGGCAGCCCU; siRNA; listed as RNA, chemistry not fully specified)”, for which the IC50 in the data set with survivin protein was found to be 5.3 nM.
As to “ISIS 353537_343868: dsRNA duplex: antisense 353537 (4'-thio), sense 343868 (unmodified) (antisense UUUGAAAAUGUUGAUCUCC; sense GGAGAUCAACAUUUUCAAA; 4'-thio antisense, chemistry not fully specified)”, the IC50 in the data set on human survivin mRNA (setting [2]) is 0.18 nM. For the same substance, the “Stability (t ½ in hours)” value in data set [1] came to 3 h.
On to “339046_339076 (antisense AACCCUGGAAGUGGUGCAGC; sense GCUGCACCACUUCCAGGGUU; siRNA; unmodified RNA)”, for which the midpoint of inhibition with survivin protein, the IC50, lay at 3.5 nM.
